Reference: ChEMBL document CHEMBL4428125, “8-Substituted 1,3-dimethyltetrahydropyrazino[2,1-f]purinediones: Water-soluble adenosine receptor antagonists and monoamine oxidase B inhibitors” (Bioorg Med Chem, 2016)
Activity calls are given as the source filed them. The rule behind the calls is not given here.

Columns and labels:
[1] = molecular target: T1, Adenosine receptor A1 (Rattus norvegicus, UniProt P25099); assay: Displacement of [3H]CCPA from A1 receptor in rat brain cortex membranes by liquid scintillation counting method; format: cell membranes
T1 sequence (P25099 whole entry): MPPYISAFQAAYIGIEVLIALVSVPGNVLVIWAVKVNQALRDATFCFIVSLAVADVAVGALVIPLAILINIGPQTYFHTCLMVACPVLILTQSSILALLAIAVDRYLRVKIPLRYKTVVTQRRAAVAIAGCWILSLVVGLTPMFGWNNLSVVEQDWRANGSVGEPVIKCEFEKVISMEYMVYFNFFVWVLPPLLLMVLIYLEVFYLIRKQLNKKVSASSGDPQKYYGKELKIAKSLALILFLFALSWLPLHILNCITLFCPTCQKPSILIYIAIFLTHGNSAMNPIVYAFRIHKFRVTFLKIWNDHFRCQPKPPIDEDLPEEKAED

[2] = molecular target: Adenosine receptor A2a (Rattus norvegicus, UniProt P30543); assay: Displacement of [3H]MSX from A2A receptor in rat brain striatum membranes measured after 30 mins by liquid scintillation counting method; format: cell membranes
Sequence of Adenosine receptor A2a (Rattus norvegicus, UniProt P30543) (P30543 whole entry): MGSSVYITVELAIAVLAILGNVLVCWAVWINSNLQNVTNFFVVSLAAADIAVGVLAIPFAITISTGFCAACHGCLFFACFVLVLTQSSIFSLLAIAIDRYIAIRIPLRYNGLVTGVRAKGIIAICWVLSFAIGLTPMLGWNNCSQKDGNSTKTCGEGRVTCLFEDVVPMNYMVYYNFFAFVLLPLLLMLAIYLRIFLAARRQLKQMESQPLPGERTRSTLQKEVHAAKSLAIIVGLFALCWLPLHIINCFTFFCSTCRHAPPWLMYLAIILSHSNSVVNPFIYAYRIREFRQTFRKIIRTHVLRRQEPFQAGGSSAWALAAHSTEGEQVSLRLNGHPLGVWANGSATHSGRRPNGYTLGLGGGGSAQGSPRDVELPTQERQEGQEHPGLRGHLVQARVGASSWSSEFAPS

[3] = molecular target: T2, Adenosine receptor A2a (Homo sapiens, UniProt P29274); assay: Displacement of [3H]MSX from human A2A receptor measured after 30 mins by liquid scintillation counting method
T2 sequence (P29274 whole entry): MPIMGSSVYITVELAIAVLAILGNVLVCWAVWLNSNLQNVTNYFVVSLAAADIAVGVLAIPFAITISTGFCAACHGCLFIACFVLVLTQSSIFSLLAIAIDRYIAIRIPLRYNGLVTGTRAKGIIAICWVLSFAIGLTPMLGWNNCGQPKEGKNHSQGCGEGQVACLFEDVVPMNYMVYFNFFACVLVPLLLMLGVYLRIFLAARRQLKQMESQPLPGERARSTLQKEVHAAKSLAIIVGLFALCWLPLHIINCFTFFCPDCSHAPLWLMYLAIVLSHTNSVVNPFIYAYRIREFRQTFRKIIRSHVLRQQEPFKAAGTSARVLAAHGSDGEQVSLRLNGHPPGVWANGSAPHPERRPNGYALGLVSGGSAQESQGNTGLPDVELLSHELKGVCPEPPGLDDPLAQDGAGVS

[4] = molecular target: T3, Adenosine receptor A1 (Homo sapiens) (UniProt P30542); assay: Agonist activity at recombinant human A1 receptor expressed in CHO cells assessed as inhibition of forskolin-induced cAMP accumulation at 10 uM preincubated for 20 mins prior to forskolin-stimulation measure after 5 mins by liquid scintillation counting method; format: functional, cell-based
T3 sequence (whole entry): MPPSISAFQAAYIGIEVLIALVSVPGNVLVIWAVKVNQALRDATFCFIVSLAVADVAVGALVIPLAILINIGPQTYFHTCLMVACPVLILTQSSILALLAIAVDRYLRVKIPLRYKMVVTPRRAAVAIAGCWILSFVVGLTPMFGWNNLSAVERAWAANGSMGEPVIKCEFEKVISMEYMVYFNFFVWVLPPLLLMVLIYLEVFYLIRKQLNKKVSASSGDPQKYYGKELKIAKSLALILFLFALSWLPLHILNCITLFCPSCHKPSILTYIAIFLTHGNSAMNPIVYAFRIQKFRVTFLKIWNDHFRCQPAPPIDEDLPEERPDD

[5] = molecular target: T3, Adenosine receptor A1 (Homo sapiens); assay: Agonist activity at recombinant human A1 receptor expressed in CHO cells assessed as inhibition of forskolin-induced cAMP accumulation at 1 uM preincubated for 20 mins prior to forskolin-stimulation measure after 5 mins by liquid scintillation counting method; format: functional, cell-based
[6] = molecular target: T2, Adenosine receptor A2a; assay: Agonist activity at recombinant human A2A receptor expressed in CHO cells assessed as increase in forskolin-induced cAMP level at 10 uM preincubated for 20 mins prior to forskolin-stimulation measure after 5 mins by liquid scintillation counting method; format: functional, cell-based
[7] = molecular target: T2, Adenosine receptor A2a; assay: Agonist activity at recombinant human A2A receptor expressed in CHO cells assessed as increase in forskolin-induced cAMP level at 1 uM preincubated for 20 mins prior to forskolin-stimulation measure after 5 mins by liquid scintillation counting method; format: functional, cell-based
[8] = molecular target: T4, Adenosine receptor A2b (Homo sapiens) (UniProt P29275); assay: Displacement of [3H]PSB-603 from human A2B receptor expressed in CHO cell membrane at 0.3 uM relative to control; format: cell membranes
T4 sequence (whole entry): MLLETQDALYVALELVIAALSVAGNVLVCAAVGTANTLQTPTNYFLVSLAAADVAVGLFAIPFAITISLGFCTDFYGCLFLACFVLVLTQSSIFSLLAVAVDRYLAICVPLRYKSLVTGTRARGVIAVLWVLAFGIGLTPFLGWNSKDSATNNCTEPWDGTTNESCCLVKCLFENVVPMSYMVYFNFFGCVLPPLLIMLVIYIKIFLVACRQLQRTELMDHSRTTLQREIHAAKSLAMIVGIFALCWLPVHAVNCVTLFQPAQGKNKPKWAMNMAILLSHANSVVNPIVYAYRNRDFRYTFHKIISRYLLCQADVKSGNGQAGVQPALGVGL

[9] = molecular target: T5, Adenosine receptor A1 (Rattus norvegicus) (UniProt P25099); assay: Displacement of [3H]CCPA from A1 receptor in rat brain cortex membranes at 1.5 uM by liquid scintillation counting method; format: cell membranes
T5 sequence (whole entry): T1 sequence (P25099 whole entry)

[10] = molecular target: T4, Adenosine receptor A2b (Homo sapiens); assay: Displacement of [3H]PSB-603 from human A2B receptor expressed in CHO cell membrane at 1 uM relative to control; format: cell membranes
[11] = molecular target: T6, Adenosine receptor A3 (Homo sapiens) (UniProt P0DMS8); assay: Displacement of [3H]PSB-11 from human A3 receptor expressed in CHO cell membrane at 10 uM by liquid scintillation counting method relative to control relative to control; format: cell membranes
T6 sequence (whole entry): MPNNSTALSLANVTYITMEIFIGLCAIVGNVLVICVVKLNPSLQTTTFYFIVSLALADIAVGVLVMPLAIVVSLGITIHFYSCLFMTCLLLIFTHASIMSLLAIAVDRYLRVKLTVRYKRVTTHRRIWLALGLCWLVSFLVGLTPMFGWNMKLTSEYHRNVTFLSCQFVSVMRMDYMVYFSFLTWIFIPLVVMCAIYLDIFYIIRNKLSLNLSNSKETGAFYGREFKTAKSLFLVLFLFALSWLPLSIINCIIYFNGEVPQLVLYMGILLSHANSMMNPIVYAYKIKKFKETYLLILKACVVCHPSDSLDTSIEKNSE

[12] = molecular target: T3, Adenosine receptor A1 (Homo sapiens); assay: Displacement of [3H]CCPA from human A1 receptor expressed in CHO cell membrane at 10 uM by liquid scintillation counting method; format: cell membranes

Ki [1] [nM]	Ki [2] [nM]	Ki [3] [nM]	Activity [4]	Activity [5]	Activity [6]	Activity [7]	Activity [8] [%]	Activity [9] [%]	Activity [10] [%]	Activity [11] [%]	Activity [12] [%]	Structure (SMILES)
100	510	595	inactive	inactive	inactive	inactive	1	–	–	–	–	Cn1c(=O)c2c(nc3n2CCN([C@@H]2CCCc4ccccc42)C3)n(C)c1=O
–	557	8860	–	–	–	–	–	37	23	20	37	Cn1c(=O)c2c(nc3n2CCN(c2cccc(Cl)c2)C3)n(C)c1=O
